Molecular target: T1, chicken gizzard smooth muscle myosin subfragment-1 chemically crosslinked to cardiac or skeletal actin (Gallus gallus, UniProt P10587)
T1 construct: chicken gizzard smooth muscle myosin subfragment-1; from tissue; host or cells: chicken gizzard
Assay: Smooth muscle myosin ATPase dose response assay (pyruvate kinase/horseradish peroxidase/pyruvate oxidase-coupled, amplex red fluorescence)
Format: biochemical
Conditions: read-out: IC50 Arithmetic Mean
How it was run: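 Readout is amplex red signal from coupled ATPase of actin-crosslinked gizzard myosin S1 (0.15 mM ATP, 12 mM K-PIPES, pH 7.00). IC50 is the half-maximal activity point of a four-parameter Hill fit.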

T1 sequence (P02607 2-151): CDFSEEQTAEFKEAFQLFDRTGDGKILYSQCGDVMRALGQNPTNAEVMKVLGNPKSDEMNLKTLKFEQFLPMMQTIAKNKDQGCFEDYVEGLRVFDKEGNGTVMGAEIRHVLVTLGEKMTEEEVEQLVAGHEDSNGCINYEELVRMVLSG
T1 sequence (P10587 84-789): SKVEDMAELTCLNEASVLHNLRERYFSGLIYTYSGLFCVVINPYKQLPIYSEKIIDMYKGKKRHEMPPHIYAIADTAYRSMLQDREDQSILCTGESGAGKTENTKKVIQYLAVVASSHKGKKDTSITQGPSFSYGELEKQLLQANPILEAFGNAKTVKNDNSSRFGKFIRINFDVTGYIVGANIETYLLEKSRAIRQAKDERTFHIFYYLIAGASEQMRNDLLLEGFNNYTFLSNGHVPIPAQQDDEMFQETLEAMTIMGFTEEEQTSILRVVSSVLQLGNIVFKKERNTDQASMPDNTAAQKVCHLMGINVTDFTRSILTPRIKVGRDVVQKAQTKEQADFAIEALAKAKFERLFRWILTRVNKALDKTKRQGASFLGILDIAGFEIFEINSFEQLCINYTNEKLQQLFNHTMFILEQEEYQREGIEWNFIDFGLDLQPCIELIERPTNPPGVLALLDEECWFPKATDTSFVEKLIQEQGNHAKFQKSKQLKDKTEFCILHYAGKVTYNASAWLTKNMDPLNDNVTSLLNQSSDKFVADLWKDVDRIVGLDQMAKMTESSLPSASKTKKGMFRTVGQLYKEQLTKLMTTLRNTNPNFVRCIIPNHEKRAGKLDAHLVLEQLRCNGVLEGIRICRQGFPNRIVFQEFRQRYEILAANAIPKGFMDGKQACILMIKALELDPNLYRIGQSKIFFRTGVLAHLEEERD

| SMILES | IC50 [nM] |
| --- | --- |
| O=C(NCc1cccnc1)c1ccc(-c2ccccc2)nc1NCCc1cccc(Cl)c1 [(2-{[2-(3-chlorophenyl)ethyl]amino}-6-phenyl(3-pyridyl))-N-(3-pyridylmethyl)carboxamide] | 349 |
| C[C@H](CNC(=O)c1cc(F)c(-c2cn[nH]c2)nc1NCCc1cccc(F)c1)NC(=O)CN | 122 |
| COP(=O)(OC)OCC(=O)N1CC[C@@H]1CNC(=O)c1cc(F)c(-c2cnn(C)c2)nc1NCCc1cccc(F)c1 [2-((2R)-2-{[(5-fluoro-2-{[2-(3-fluorophenyl)ethyl]amino}-6-(1-methylpyrazol-4-yl)(3-pyridyl))carbonylamino]methyl}azetidinyl)-2-oxoethyl dimethyl phosphate] | 400 |
| O=C(NCc1cccnc1)c1ccc(-c2nnn[nH]2)nc1NCCc1cccc(F)c1 [(6-(1H-1,2,3,4-tetraazol-5-yl)-2-{[2-(3-fluorophenyl)ethyl]amino}(3-pyridyl))-N-(3-pyridylmethyl)carboxamide] | 78100 |
| O=C(NCc1cccnc1)c1ccc(-c2cn[nH]c2)nc1NCCc1cccc(F)c1 [(2-{[2-(3-fluorophenyl)ethyl]amino}-6-pyrazol-4-yl(3-pyridyl))-N-(3-pyridylmethyl)carboxamide] | 44 |
| Cc1cc(C(=O)NC[C@H]2CCC(=O)N2CCCNC(=O)OC(C)(C)C)c(NCCc2cccc(F)c2)nc1-c1ccccc1C#N [N-[3-((5R)-5-{[(6-(2-cyanophenyl)-2-{[2-(3-fluorophenyl)ethyl]amino}-5-methyl(3-pyridyl))carbonylamino]methyl}-2-oxopyrrolidinyl)propyl](tert-butoxy)carboxamide] | 5370 |
| Cn1cc(-c2nc(NCCc3cccc(F)c3)c(C(=O)NCc3cc[nH]n3)cc2F)cn1 [(5-fluoro-2-{[2-(3-fluorophenyl)ethyl]amino}-6-(1-methylpyrazol-4-yl)(3-pyridyl))-N-(pyrazol-3-ylmethyl)carboxamide] | 20 |
| CNC(=O)[C@H](C)NC(=O)c1ccc(-c2ccccc2C#N)nc1NCCc1cccc(F)c1 [(2S)-2-[(6-(2-cyanophenyl)-2-{[2-(3-fluorophenyl)ethyl]amino}(3-pyridyl))carbonylamino]-N-methylpropanamide] | 985 |
| O=C(NCc1cccnc1)c1ccc(-c2ccccc2)nc1NCCc1ccc(Cl)cc1 [(2-{[2-(4-chlorophenyl)ethyl]amino}-6-phenyl(3-pyridyl))-N-(3-pyridylmethyl)carboxamide] | 6680 |
| CC(C)(C)OC(=O)NCCN1CCC[C@H](NC(=O)c2ccc(-c3ccccc3C#N)nc2NCCc2cccc(F)c2)C1=O (stereo in doubt) [N-(1-{2-[(tert-butoxy)carbonylamino]ethyl}-2-oxo(3-piperidyl))(6-(2-cyanophenyl)-2-{[2-(3-fluorophenyl)ethyl]amino}(3-pyridyl))carboxamide] | 15300 |

Other lines, results leading:

| IC50 [nM] | SMILES |
| --- | --- |
| 37 | CN1CC(=O)N[C@@H](CNC(=O)c2ccc(-c3ccccc3C#N)nc2NCCc2cccc(F)c2)C1 (stereo in doubt) [(6-(2-cyanophenyl)-2-{[2-(3-fluorophenyl)ethyl]amino}(3-pyridyl))-N-[(4-methyl-6-oxopiperazin-2-yl)methyl]carboxamide] |
| 298 | CNc1ccc(CNC(=O)c2ccc(-c3ccccc3C#N)nc2NCCc2cccc(F)c2)cn1 [(6-(2-cyanophenyl)-2-{[2-(3-fluorophenyl)ethyl]amino}(3-pyridyl))-N-{[6-(methylamino)(3-pyridyl)]methyl}carboxamide] |
| 44 | N#Cc1ccccc1-c1ccc(C(=O)NC[C@H]2CCN2C(=O)CN)c(NCCc2cccc(F)c2)n1 [N-{[(2R)-1-(2-aminoacetyl)azetidin-2-yl]methyl}(6-(2-cyanophenyl)-2-{[2-(3-fluorophenyl)ethyl]amino}(3-pyridyl))carboxamide] |
| 266 | N#Cc1ccccc1-c1ccc(C(=O)NCCc2cnccn2)c(NCCc2cccc(F)c2)n1 [(6-(2-cyanophenyl)-2-{[2-(3-fluorophenyl)ethyl]amino}(3-pyridyl))-N-(2-pyrazin-2-ylethyl)carboxamide] |
| 174 | N#Cc1ccccc1-c1ccc(C(=O)NC[C@H]2CCCN2)c(NCCc2cccc(F)c2)n1 [N-[((2R)pyrrolidin-2-yl)methyl](6-(2-cyanophenyl)-2-{[2-(3-fluorophenyl)ethyl]amino}(3-pyridyl))carboxamide] |
| 7750 | CC(=O)N1CCN(c2ccc(CNC(=O)c3ccc(-c4ccccc4C#N)nc3NCCc3cccc(F)c3)cn2)CC1 [N-{[6-(4-acetylpiperazinyl)(3-pyridyl)]methyl}(6-(2-cyanophenyl)-2-{[2-(3-fluorophenyl)ethyl]amino}(3-pyridyl))carboxamide] |
| 9630 | NCCCN1C(=O)CNC[C@@H]1CNC(=O)c1ccc(-c2cc[nH]n2)nc1NCCc1cccc(F)c1 [N-{[(2R)-1-(3-aminopropyl)-6-oxopiperazin-2-yl]methyl}(2-{[2-(3-fluorophenyl)ethyl]amino}-6-pyrazol-3-yl(3-pyridyl))carboxamide] |
| 4810 | N#Cc1ccccc1-c1ccc(C(=O)NCC(O)CN)c(NCCc2cccc(F)c2)n1 (stereo not shown) [N-(3-amino-2-hydroxypropyl)(6-(2-cyanophenyl)-2-{[2-(3-fluorophenyl)ethyl]amino}(3-pyridyl))carboxamide] |
| 2540 | O=C(NC[C@H]1CCN1C(=O)CO)c1ccc(-c2ccc(CO)s2)nc1NCCc1cccc(F)c1 [N-{[(2R)-1-(2-hydroxyacetyl)azetidin-2-yl]methyl}(2-{[2-(3-fluorophenyl)ethyl]amino}-6-[5-(hydroxymethyl)(2-thienyl)](3-pyridyl))carboxamide] |
| 1890 | CN[C@H](C)CNC(=O)c1ccc(-c2ccccc2C#N)nc1NCCc1cccc(F)c1 [N-[(2R)-2-(methylamino)propyl](6-(2-cyanophenyl)-2-{[2-(3-fluorophenyl)ethyl]amino}(3-pyridyl))carboxamide] |
| 143 | Cn1cc(-c2nc(NCCc3cccc(F)c3)c(C(=O)NC[C@H]3CCCN3C(=O)C(O)CO)cc2F)cn1 (stereo partly drawn) [N-{[(2R)-1-(2,3-dihydroxypropanoyl)pyrrolidin-2-yl]methyl}(5-fluoro-2-{[2-(3-fluorophenyl)ethyl]amino}-6-(1-methylpyrazol-4-yl)(3-pyridyl))carboxamide] |
| 22 | N#Cc1ccccc1-c1ccc(C(=O)NCc2cccnc2N)c(NCCc2cccc(F)c2)n1 [N-[(2-amino(3-pyridyl))methyl](6-(2-cyanophenyl)-2-{[2-(3-fluorophenyl)ethyl]amino}(3-pyridyl))carboxamide] |
| 735 | N#Cc1cc(C(=O)NC[C@H]2CCC(=O)N2CCCN)c(NCCc2cccc(F)c2)nc1-c1cn[nH]c1 [N-{[(2R)-1-(3-aminopropyl)-5-oxopyrrolidin-2-yl]methyl}(5-cyano-2-{[2-(3-fluorophenyl)ethyl]amino}-6-pyrazol-4-yl(3-pyridyl))carboxamide] |
| 117 | CC[C@H](CNC(=O)c1cc(F)c(-c2cnn(C)c2)nc1NCCc1cccc(F)c1)C(=O)OC [methyl (2R)-2-{[(5-fluoro-2-{[2-(3-fluorophenyl)ethyl]amino}-6-(1-methylpyrazol-4-yl)(3-pyridyl))carbonylamino]methyl}butanoate] |
| 37 | N#Cc1ccccc1-c1ccc(C(=O)NCc2cccc(CO)n2)c(NCCc2cccc(F)c2)n1 [(6-(2-cyanophenyl)-2-{[2-(3-fluorophenyl)ethyl]amino}(3-pyridyl))-N-{[6-(hydroxymethyl)(2-pyridyl)]methyl}carboxamide] |

Reference: patent publication US7932270B2 (Cytokinetics, Inc., priority 2006, dated 2011)
